Assay: xn = mol fraction of the nth substance listed
Conditions: 100 kPa

`C[n+]1ccn(CCCC#N)c1.O=S(=O)([O-])C(F)(F)F` + O=C1CCCO1 gave an electrical conductivity (288.15 K, x1 = 0.1003) of 0.725 S/m, an electrical conductivity (288.15 K, x1 = 0.2001) of 0.798 S/m and an electrical conductivity (288.15 K, x1 = 0.3999) of 0.353 S/m. The electrical conductivity (288.15 K, x1 = 0.4999) was 0.261 S/m, the electrical conductivity (288.15 K, x1 = 0.7001) was 0.118 S/m and the electrical conductivity (288.15 K, x1 = 0.8002) was 0.084 S/m. It also gave an electrical conductivity (288.15 K, x1 = 0.9004) of 0.05 S/m, an electrical conductivity (293.15 K, x1 = 0.1003) of 0.834 S/m and an electrical conductivity (293.15 K, x1 = 0.2001) of 0.906 S/m. For the same molecule, the electrical conductivity (293.15 K, x1 = 0.3003) was 0.623 S/m, the electrical conductivity (293.15 K, x1 = 0.3999) was 0.434 S/m and the electrical conductivity (293.15 K, x1 = 0.4999) was 0.318 S/m. The electrical conductivity (293.15 K, x1 = 0.6002) was 0.232 S/m, the electrical conductivity (293.15 K, x1 = 0.7001) was 0.156 S/m and the electrical conductivity (293.15 K, x1 = 0.8002) was 0.11 S/m. The electrical conductivity (293.15 K, x1 = 1) was 0.034 S/m, the electrical conductivity (298.15 K, x1 = 0.1003) was 0.95 S/m and the electrical conductivity (298.15 K, x1 = 0.2001) was 1.02 S/m. The electrical conductivity (298.15 K, x1 = 0.3003) was 0.726 S/m, the electrical conductivity (298.15 K, x1 = 0.3999) was 0.521 S/m and the electrical conductivity (298.15 K, x1 = 0.4999) was 0.385 S/m. The electrical conductivity (298.15 K, x1 = 0.6002) was 0.283 S/m, the electrical conductivity (298.15 K, x1 = 0.7001) was 0.201 S/m and the electrical conductivity (298.15 K, x1 = 0.8002) was 0.142 S/m. For the same molecule, the electrical conductivity (298.15 K, x1 = 1) was 0.048 S/m, the electrical conductivity (303.15 K, x1 = 0.1003) was 1.07 S/m and the electrical conductivity (303.15 K, x1 = 0.2001) was 1.14 S/m. The electrical conductivity (303.15 K, x1 = 0.3003) was 0.835 S/m, the electrical conductivity (303.15 K, x1 = 0.3999) was 0.617 S/m and the electrical conductivity (303.15 K, x1 = 0.6002) was 0.341 S/m. It also gave an electrical conductivity (303.15 K, x1 = 0.7001) of 0.252 S/m, an electrical conductivity (303.15 K, x1 = 1) of 0.064 S/m and an electrical conductivity (308.15 K, x1 = 0.1003) of 1.2 S/m. For the same molecule, the electrical conductivity (308.15 K, x1 = 0.2001) was 1.26 S/m, the electrical conductivity (308.15 K, x1 = 0.3003) was 0.951 S/m and the electrical conductivity (308.15 K, x1 = 0.3999) was 0.718 S/m. It also gave an electrical conductivity (308.15 K, x1 = 0.4999) of 0.539 S/m, an electrical conductivity (308.15 K, x1 = 0.7001) of 0.309 S/m and an electrical conductivity (308.15 K, x1 = 0.8002) of 0.221 S/m. The electrical conductivity (308.15 K, x1 = 0.9004) was 0.153 S/m, the electrical conductivity (313.15 K, x1 = 0.1003) was 1.33 S/m and the electrical conductivity (313.15 K, x1 = 0.2001) was 1.4 S/m. It also gave an electrical conductivity (313.15 K, x1 = 0.3999) of 0.83 S/m, an electrical conductivity (313.15 K, x1 = 0.4999) of 0.625 S/m and an electrical conductivity (313.15 K, x1 = 0.8002) of 0.269 S/m. For the same molecule, the electrical conductivity (313.15 K, x1 = 0.9004) was 0.19 S/m, the electrical conductivity (313.15 K, x1 = 1) was 0.106 S/m and the electrical conductivity (318.15 K, x1 = 0.1003) was 1.48 S/m. It also gave an electrical conductivity (318.15 K, x1 = 0.2001) of 1.53 S/m, an electrical conductivity (318.15 K, x1 = 0.3003) of 1.21 S/m and an electrical conductivity (318.15 K, x1 = 0.3999) of 0.947 S/m. The electrical conductivity (318.15 K, x1 = 0.4999) was 0.721 S/m, the electrical conductivity (318.15 K, x1 = 0.6002) was 0.554 S/m and the electrical conductivity (318.15 K, x1 = 0.7001) was 0.441 S/m. For the same molecule, the electrical conductivity (323.15 K, x1 = 0.1003) was 1.61 S/m, the electrical conductivity (323.15 K, x1 = 0.2001) was 1.68 S/m and the electrical conductivity (323.15 K, x1 = 0.3999) was 1.07 S/m. For the same molecule, the electrical conductivity (323.15 K, x1 = 0.4999) was 0.821 S/m, the electrical conductivity (323.15 K, x1 = 0.6002) was 0.642 S/m and the electrical conductivity (323.15 K, x1 = 0.7001) was 0.513 S/m. It also gave an electrical conductivity (328.15 K, x1 = 0.1003) of 1.76 S/m, an electrical conductivity (328.15 K, x1 = 0.2001) of 1.83 S/m and an electrical conductivity (328.15 K, x1 = 0.3003) of 1.49 S/m. It also gave an electrical conductivity (328.15 K, x1 = 0.3999) of 1.2 S/m, an electrical conductivity (328.15 K, x1 = 0.4999) of 0.927 S/m and an electrical conductivity (328.15 K, x1 = 0.6002) of 0.733 S/m. The electrical conductivity (328.15 K, x1 = 0.7001) was 0.592 S/m, the electrical conductivity (328.15 K, x1 = 0.8002) was 0.449 S/m and the electrical conductivity (328.15 K, x1 = 0.9004) was 0.333 S/m. It also gave an electrical conductivity (328.15 K, x1 = 1) of 0.205 S/m, an electrical conductivity (333.15 K, x1 = 0.1003) of 1.91 S/m and an electrical conductivity (333.15 K, x1 = 0.2001) of 1.98 S/m. For the same molecule, the electrical conductivity (333.15 K, x1 = 0.3003) was 1.64 S/m, the electrical conductivity (333.15 K, x1 = 0.4999) was 1.04 S/m and the electrical conductivity (333.15 K, x1 = 0.6002) was 0.832 S/m. The electrical conductivity (333.15 K, x1 = 0.7001) was 0.675 S/m, the electrical conductivity (333.15 K, x1 = 0.8002) was 0.52 S/m and the electrical conductivity (333.15 K, x1 = 0.9004) was 0.392 S/m. It also gave an electrical conductivity (333.15 K, x1 = 1) of 0.25 S/m, an electrical conductivity (338.15 K, x1 = 0.1003) of 2.07 S/m and an electrical conductivity (338.15 K, x1 = 0.2001) of 2.14 S/m. It also gave an electrical conductivity (338.15 K, x1 = 0.3999) of 1.46 S/m, an electrical conductivity (338.15 K, x1 = 0.4999) of 1.17 S/m and an electrical conductivity (338.15 K, x1 = 0.6002) of 0.945 S/m. It also gave an electrical conductivity (338.15 K, x1 = 0.7001) of 0.761 S/m, an electrical conductivity (338.15 K, x1 = 0.8002) of 0.596 S/m and an electrical conductivity (338.15 K, x1 = 0.9004) of 0.454 S/m. For the same molecule, the electrical conductivity (343.15 K, x1 = 0.1003) was 2.22 S/m, the electrical conductivity (343.15 K, x1 = 0.2001) was 2.3 S/m and the electrical conductivity (343.15 K, x1 = 0.3003) was 1.95 S/m. It also gave an electrical conductivity (343.15 K, x1 = 0.3999) of 1.6 S/m, an electrical conductivity (343.15 K, x1 = 0.4999) of 1.29 S/m and an electrical conductivity (343.15 K, x1 = 0.6002) of 1.05 S/m. It also gave an electrical conductivity (343.15 K, x1 = 0.8002) of 0.677 S/m, an electrical conductivity (343.15 K, x1 = 0.9004) of 0.519 S/m and an electrical conductivity (343.15 K, x1 = 1) of 0.355 S/m.

Source: a compilation of properties of binary mixtures (doi:10.1016/j.molliq.2022.120052)
